# Source: US8148391B2 (Cephalon, Inc., priority 2006, dated 2012)
# pIC50: −log10 of the molar value.
# Target: T1, baculovirus-expressed ALK (Homo sapiens, UniProt Q9UM73)
# T1 construct: host or cells: baculovirus expression system
# Assay: ALK Kinase Assay (ELISA-type, time-resolved fluorescence)
# Format: biochemical
# Settings: 1 μM ATP (Km level), 30 ng/ml ALK, 37° C., 15 minutes; read-out: ALK Activity (ALK kinase inhibition, IC50 class)
# Experimental: Briefly, each 96-well plate was coated with 100 μL/well of 10 μg/mL substrate (phospholipase C-γ) in Tris-buffered saline (TBS). […] The reaction was initiated by adding enzyme (30 ng/ml ALK) and was allowed to proceed at 37° C. for 15 minutes. Detection of the phosphorylated product was performed by adding 100 μl/well of Eu-N1 labeled PT66 antibody (Perkin Elmer # AD0041).
# Data analysis was performed using ActivityBase (IDBS, Guilford, UK). IC50 values were calculated by plotting percent inhibition versus log10 of the concentration of compound and fitting to the nonlinear regression sigmoidal dose-response (variable slope) equation in XLFit (IDBS, Guilford, UK).
# T1 sequence (Q9UM73 19-1620): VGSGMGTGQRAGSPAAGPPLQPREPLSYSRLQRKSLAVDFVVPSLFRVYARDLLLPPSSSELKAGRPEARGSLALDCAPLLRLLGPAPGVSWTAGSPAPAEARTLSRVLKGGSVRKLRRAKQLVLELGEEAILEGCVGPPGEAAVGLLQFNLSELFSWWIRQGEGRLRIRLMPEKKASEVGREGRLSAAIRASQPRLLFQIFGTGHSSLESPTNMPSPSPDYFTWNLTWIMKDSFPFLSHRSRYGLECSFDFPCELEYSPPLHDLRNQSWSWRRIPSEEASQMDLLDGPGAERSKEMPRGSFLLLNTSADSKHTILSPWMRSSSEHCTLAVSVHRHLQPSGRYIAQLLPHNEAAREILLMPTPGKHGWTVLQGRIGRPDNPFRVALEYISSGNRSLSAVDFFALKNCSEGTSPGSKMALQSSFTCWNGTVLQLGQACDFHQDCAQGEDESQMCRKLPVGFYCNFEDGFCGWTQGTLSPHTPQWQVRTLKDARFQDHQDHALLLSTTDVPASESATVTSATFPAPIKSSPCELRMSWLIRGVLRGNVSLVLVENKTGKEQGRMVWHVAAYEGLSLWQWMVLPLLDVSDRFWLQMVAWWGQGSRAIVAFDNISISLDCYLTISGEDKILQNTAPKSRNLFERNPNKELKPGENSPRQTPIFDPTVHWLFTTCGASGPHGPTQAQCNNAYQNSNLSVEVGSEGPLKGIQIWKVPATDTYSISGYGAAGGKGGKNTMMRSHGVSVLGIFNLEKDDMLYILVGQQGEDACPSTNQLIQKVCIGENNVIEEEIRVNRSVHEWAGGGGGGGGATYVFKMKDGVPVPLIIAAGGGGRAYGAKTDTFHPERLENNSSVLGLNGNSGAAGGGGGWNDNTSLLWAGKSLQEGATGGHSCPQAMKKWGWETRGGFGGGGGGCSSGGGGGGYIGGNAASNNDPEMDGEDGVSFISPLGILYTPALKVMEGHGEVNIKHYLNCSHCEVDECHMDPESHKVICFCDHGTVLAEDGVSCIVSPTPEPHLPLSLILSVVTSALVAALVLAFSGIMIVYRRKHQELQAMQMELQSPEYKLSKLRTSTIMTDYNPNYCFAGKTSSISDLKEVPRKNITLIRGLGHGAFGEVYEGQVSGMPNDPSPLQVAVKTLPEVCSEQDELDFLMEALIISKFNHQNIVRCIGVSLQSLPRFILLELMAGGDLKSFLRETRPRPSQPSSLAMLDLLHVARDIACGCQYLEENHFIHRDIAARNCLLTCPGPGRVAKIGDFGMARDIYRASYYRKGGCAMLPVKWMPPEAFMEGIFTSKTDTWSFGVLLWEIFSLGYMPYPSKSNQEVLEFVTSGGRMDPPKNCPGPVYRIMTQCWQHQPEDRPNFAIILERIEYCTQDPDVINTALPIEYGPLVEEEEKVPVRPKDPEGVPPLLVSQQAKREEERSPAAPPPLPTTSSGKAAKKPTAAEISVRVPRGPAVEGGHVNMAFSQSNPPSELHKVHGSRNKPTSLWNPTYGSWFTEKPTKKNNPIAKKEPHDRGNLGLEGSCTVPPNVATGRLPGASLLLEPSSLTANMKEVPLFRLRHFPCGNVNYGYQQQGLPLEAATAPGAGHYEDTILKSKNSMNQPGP
row,pIC50,SMILES
1,> 7.00,"C#CCN(C)C(=O)c1ccccc1Nc1nc(Nc2ccc3c(c2)CCCC(=O)N3C)ncc1Cl [Example 1390, [5-Chloro-2-(1-methyl-2-oxo-2,3,4,5-tetrahydro-1H-benzo[b]azepin-7-ylamino)-pyrimidin-4-ylamino]-N-methyl-N-prop-2-ynyl-benzamide]"
2,6.00 to 7.00,"CNC(=O)c1cccc(F)c1Nc1nc(Nc2ccc3c(c2)OCCCN3C(=O)OC(C)C)ncc1Cl [Example 1432, 3-[5-Chloro-4-(2-fluoro-6-methylcarbamoyl-phenylamino)-pyrimidin-2-ylamino]-7,8-dihydro-6H-5-oxa-9-aza-benzocycloheptene-9-carboxylic acid isopropyl ester]"
3,6.00 to 7.00,"CNC(=O)c1cccc(F)c1Nc1nc(Nc2ccc3c(c2)OCCCN3C(=O)OC)ncc1Cl [Example 1431, 3-[5-Chloro-4-(2-fluoro-6-methylcarbamoyl-phenylamino)-pyrimidin-2-ylamino]-7,8-dihydro-6H-5-oxa-9-aza-benzocycloheptene-9-carboxylic acid methyl ester]"
4,6.00 to 7.00,"CNC(=O)c1cccc(F)c1Nc1nc(Nc2ccc3c(c2)NC(=O)C(NC(=O)CN(C)C)CC3(C)C)ncc1Cl (centres unmarked) [Example 1285, 2-{5-Chloro-2-[3-(2-dimethylamino-acetylamino)-5,5-dimethyl-2-oxo-2,3,4,5-tetrahydro-1H-1-benzazepin-8-ylamino]-pyrimidin-4-ylamino}-3-fluoro-N-methyl-benzamide]"
5,6.00 to 7.00,"CNC(=O)c1cccc(F)c1Nc1nc(Nc2ccc3c(c2)NC(=O)C(NC(=O)COC)CC3(C)C)ncc1Cl (centres unmarked) [Example 1292, 2-{5-Chloro-2-[3-(2-methoxy-acetylamino)-5,5-dimethyl-2-oxo-2,3,4,5-tetrahydro-1H-1-benzazepin-8-ylamino]-pyrimidin-4-ylamino}-3-fluoro-N-methyl-benzamide]"

# Same assay, conditions: ALK kinase inhibition, 1 μM ATP (Km level); read-out: ALK Activity
row,pIC50,SMILES
1,6.00 to 7.00,"CNC(=O)c1cccc(Cl)c1Nc1nc(Nc2ccc3c(c2)CCN(CCOC)CC3)ncc1Cl [Example 312, 3-Chloro-2-{5-chloro-2-[3-(2-methoxy-ethyl)-2,3,4,5-tetrahydro-1H-benzo[d]azepin-7-ylamino]-pyrimidine-4-ylamino}-N-methyl-benzamide]"
2,> 7.00,"CNC(=O)c1ccccc1Nc1nc(Nc2ccc3c(c2)C(C)(C)CCC(=O)N3)ncc1Cl [Example 381, 2-[5-Chloro-2-(5,5-dimethyl-2-oxo-2,3,4,5-tetrahydro-1H-benzo[b]azepin-7-ylamino)-pyrimidin-4-ylamino]-N-methyl-benzamide]"

# Same assay, conditions: ALK kinase inhibition, 1 μM ATP; read-out: ALK Activity
row,pIC50,SMILES
1,> 7.00,"CNC(=O)c1cccc(F)c1Nc1nc(Nc2ccc3c(c2)N(CC(C)C)C(=O)CCC3(C)C)ncc1Cl [Example 1592, 2-[5-Chloro-2-(1-isobutyl-5,5-dimethyl-2-oxo-2,3,4,5-tetrahydro-1H-benzo[b]azepin-8-ylamino)-pyrimidin-4-ylamino]-3-fluoro-N-methyl-benzamide]"
2,6.00 to 7.00,"CNC(=O)c1cccc(F)c1Nc1nc(Nc2ccc3c(c2)OCCCN3C(=O)COC)ncc1Cl [Example 1726, 2-{5-Chloro-2-[9-(2-methoxy-acetyl)-6,7,8,9-tetrahydro-5-oxa-9-aza-benzocyclohepten-3-ylamino]-pyrimidin-4-ylamino}-3-fluoro-N-methyl-benzamide]"
3,6.00 to 7.00,"CNC(=O)c1cccc(F)c1Nc1nc(Nc2ccc3c(c2)OCCCN3)ncc1Cl [Example 1723, 2-[5-Chloro-2-(6,7,8,9-tetrahydro-5-oxa-9-aza-benzocyclohepten-3-ylamino)-pyrimidin-4-ylamino]-3-fluoro-N-methyl-benzamide]"
4,6.00 to 7.00,"CNC(=O)c1cccc(F)c1Nc1nc(Nc2ccc3c(c2)OCCCN3C(C)=O)ncc1Cl [Example 1724, 2-[2-(9-Acetyl-6,7,8,9-tetrahydro-5-oxa-9-aza-benzocyclohepten-3-ylamino)-5-chloro-pyrimidin-4-ylamino]-3-fluoro-N-methyl-benzamide]"
